Laboratory results as given in paper PMC8761912, “Cryptosporidium parvum Pyruvate Kinase Inhibitors With in vivo Anti-cryptosporidial Efficacy” (Frontiers in Microbiology, 2022).
Where two headings read alike, the source gives them in different places.

Experiments:
C. parvum = test: In vivo efficacy in C. parvum-infected IFN-γ KO mice, fecal oocysts load by qPCR; design: species or system Cryptosporidium parvum; settings: for relative potency among the treatments (oocysts load): 2.5 mg/kg NSC638080, NSC303244, NSC252172, 5 mg/kg NSC234945, paromomycin 1,000 mg/kg; for reduction in oocysts load compared to untreated mice / oocysts load compared to untreated mice: 10 mg/kg oral once daily; for reduction in oocysts load compared to untreated mice: day 9 PI; for oocysts load compared to untreated mice / potency, fold higher than paromomycin (1,000 mg/kg): day 10 PI; for potency, fold higher than paromomycin (1,000 mg/kg): 10 mg/kg
Description: (§1) Eight weeks old male interferon-gamma knockout (IFN-γ KO) mice (B6.129S7-Ifng^TM1Ts/J) were purchased from The Jackson Laboratory, United States, and allowed to quarantine and acclimatize for 1 week before the commencement of experiments. Before the start of the infection assays in mice, the tolerability of each inhibitor was determined by daily oral gavage with varying dosages (0–10 mg/kg mouse bodyweight) in groups of mice (n = 3 mice per group) for 8 days. During this period, mice were monitored daily for any changes in physical and mental activity, feeding, body weight, body temperature, fur condition, and body posture. […] Mice were divided into infected and uninfected groups (n = 3 mice per group) and each individual mouse was housed in a separate cage lined with sterile gauze bedding. Each mouse from the infected group was infected by oral gavage administration of 10^4 C. parvum AUCP-1 isolate oocysts suspended in 50 μl of PBS. Beginning day 3 PI, groups of mice were orally treated with CpPyK inhibitors (at the specified doses), sham (100 μl of 5% DMSO in PBS), or 1,000 mg/kg paromomycin (in sterile water) once daily for a total of 8 days. Fecal pellets were collected daily in individual sterile 15 ml tubes, and submerged in an equivalent volume of PBS containing a cocktail of penicillin (100 units/ml), streptomycin (100 μg/ml), chloramphenicol (34 μg/ml), and amphotericin (0.25 μg/ml), and stored at 4°C until use. Three independent replicate infection assays were performed. Mice were sacrificed at day 11 PI, and 5 cm of the distal small intestine just anterior to the cecum was resected and submerged in 10% neutral buffered formalin and submitted for histopathological processing in the Comparative Biosciences Histology Laboratory at the University of Illinois at Urbana-Champaign. Briefly, intestinal tissues preserved in 10% neutral buffered formalin were washed in 70% ethanol, embedded in paraffin, and sectioned transversely at a thickness of 5 μm. Sections were stained with hematoxylin and eosin. The slides were imaged using a Zeiss microscope fitted with a color camera.
DNA was isolated from 250 mg of feces collected from individual mice using the QIAamp® PowerFecal® Pro DNA kit (Qiagen, United States) following the manufacturer’s protocol. Oocysts load per gram of feces was measured by quantitative real time PCR (qPCR) analysis of the Cp18s rRNA gene (GenBank accession number AF164102) using gene-specific primers: 5′-[…]-3′ (Forward) and 5′-[…]-3′ (Reverse), described previously ([Parr et al., 2007]). To generate a quantification standard curve, fecal samples were obtained from uninfected mice and spiked with 10^8 C. parvum oocysts per gram of feces, followed by isolation of DNA as described above. Ten-fold serial dilutions of the extracted DNA were made and used as quantification standards for qPCR. C. parvum oocysts load quantification for the test mice was performed using DNA samples from the infected feces. Each 20 μl qPCR reaction contained 10 μl of PowerUp™ SYBR™ Green Master Mix (Applied Biosystems, United States), 500 nM of each primer, and 2 μl of DNA template. After 2 min of initial denaturation at 95°C, 40 cycles of denaturation at 95°C for 15 sec and annealing/extension at 60°C for 1 min were performed in a 7500 Real-Time PCR System (Applied Biosystems, United States). The oocyst load per gram of feces was derived by the 7500-system software using the generated quantification standard curves (Supplementary Figure 1).

[1] = Tolerability in uninfected mice, daily oral gavage; format: in vivo; settings: 10 mg/kg daily oral administration, 8 days
Description: as §1

[2] = Physicochemical properties adapted from PubChem; settings: based on Supplementary Table 2 properties
Text: Supplementary Table S2. Physicochemical properties of identified CpPyK inhibitors (Adapted from: https://pubchem.ncbi.nlm.nih.gov).
NSC Molecular Molecular Number of Number of Number of Polar number IUPAC name formula weight cLog(p) Hydrogen bond Hydrogen bond rotatable surface donors acceptors bonds area (Å²) […]

[3] = biological target: recombinant CpPyK (rCpPyK) protein (Cryptosporidium parvum, UniProt Q5CSM7); test: rCpPyK enzymatic activity inhibition assay (ATP detection, Cell Titer-Glo luminescence); format: biochemical
Description: The in vitro enzymatic activity of the rCpPyK protein was determined by quantitating the amount of ATP produced by the transfer of a phosphate group from phosphoenolpyruvate to adenosine diphosphate (ADP) in the presence of varying concentrations of the recombinant protein (Figure 1A). A typical assay contained 0.5 mM phosphoenolpyruvate, 0.6 mM ADP, 50 mM Tris buffer pH 7.5, 60 mM MgSO4, 100 mM KCl, and varying concentrations of rCpPyK incubated for 3 h at room temperature. The ATP generated was detected in a reaction volume of 50 μl in white opaque-walled 96 well plates by the luciferase-based Cell Titer-Glo 2.0 reagent (Promega) following the manufacturer’s instructions. The enzyme kinetics of rCpPyK were determined by using varying phosphoenolpyruvate (0–8 mM) and ADP (0–2 mM) concentrations in an enzymatic reaction catalyzed by a fixed concentration of the recombinant protein (6 ng/μl). In all assays, reaction mixtures without rCpPyK were included as negative controls. Three independent assays were performed for each experiment, and samples were run in triplicate. The luminescence generated was recorded using a multi-mode microplate reader (Spectra Max iD3; Molecular Devices, United States). GraphPad PRISM® v8 software was used to fit the Michaelis–Menten model directly to the substrate-velocity data to determine the enzymatic kinetic parameters for rCpPyK.
The Diversity Set VI chemical library (Supplementary Table 1) was obtained from the National Cancer Institute (NCI)/Developmental Therapeutics Program (DTP) Open Repository collection of chemical compounds.^1 Compounds were individually reconstituted in molecular biology grade dimethyl sulfoxide (DMSO) from Sigma-Aldrich and stored at −20°C. From the library, 1,424 compounds were screened in 96-well plates using the rCpPyK catalyzed enzyme assay to identify potential CpPyK inhibitors. The reactions were performed in 50 μl reaction volume containing 0.5 mM phosphoenolpyruvate, 0.6 mM ADP, 50 mM Tris buffer pH 7.5, 60 mM MgSO4, 100 mM KCl, and 6 ng/μl of rCpPyK protein with or without compound. The concentration of DMSO in all reaction mixtures was 1% (v/v). Control reactions without rCpPyK protein were included for background subtraction. Following 3 h of incubation at room temperature, an equal volume of the Cell Titer-Glo 2.0 reagent was added to each well, and the luminescence produced was recorded as relative luminescence units (RLU) after 10 min of incubation using a multi-mode microplate reader (Spectra Max iD3; Molecular Devices, United States). The mean percent inhibition (MPI) of rCpPyK activity by each compound was derived by dividing the difference in luminescence (RLU) between the compound-treated wells and the DMSO-treated wells by the luminescence of the DMSO-treated wells and multiplying the product by 100:
(1) MPI=[(MeanRLUDMSO-treated-MeanRLUCompound-treated)÷MeanRLUDMSO-treated]×100.
Half maximal inhibitory concentration (IC50) values were determined by applying a non-linear regression analysis curve fit to the mean dose-response data for varying concentrations of each compound using GraphPad PRISM® v8. Reactions were performed in triplicate and repeated at least thrice.

[4] = 2.5 mg/kg oral once daily from day 3 PI for 8 days
[5] = 6 ng/μl rCpPyK, 3 h at room temperature, read-out: Enzyme inhibition IC50

Sequence of recombinant CpPyK (rCpPyK) protein (Q5CSM7 entry or part of it): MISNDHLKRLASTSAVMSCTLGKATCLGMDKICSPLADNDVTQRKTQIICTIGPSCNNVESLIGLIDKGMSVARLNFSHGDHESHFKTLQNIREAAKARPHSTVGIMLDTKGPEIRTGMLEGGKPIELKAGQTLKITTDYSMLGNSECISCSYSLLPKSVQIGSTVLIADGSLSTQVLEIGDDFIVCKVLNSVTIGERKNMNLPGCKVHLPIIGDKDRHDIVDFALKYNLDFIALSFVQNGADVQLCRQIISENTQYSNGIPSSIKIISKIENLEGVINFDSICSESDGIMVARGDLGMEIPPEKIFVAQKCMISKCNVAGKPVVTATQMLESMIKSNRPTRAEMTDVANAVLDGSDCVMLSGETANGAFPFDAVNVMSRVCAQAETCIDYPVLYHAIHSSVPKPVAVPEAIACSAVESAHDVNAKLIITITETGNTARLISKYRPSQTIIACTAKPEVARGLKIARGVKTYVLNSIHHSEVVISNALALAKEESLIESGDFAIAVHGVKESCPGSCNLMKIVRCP

## c1ccc(-c2nnc(-c3ccccn3)[nH]2)nc1 [NSC234945, 2-(3-pyridin-2-yl-1H-1,2,4-triazol-5-yl)pyridine]
C. parvum
  relative potency among the treatments (oocysts load): highest potency
  reduction in oocysts load compared to untreated mice: about threefold reduction in oocysts load
  oocysts load compared to untreated mice: about ninefold lower oocysts load
  potency, fold higher than paromomycin (1,000 mg/kg): about 2.5 fold
C. parvum; 5 mg/kg oral once daily from day 3 PI
  oocysts load by day 9 PI vs other treatments and untreated group: significantly (P < 0.05) lower oocysts loads
C. parvum; 5 mg/kg oral once daily from day 3 PI for 8 days
  load of C. parvum oocysts shed in feces: significant reduction
[1]
  toxicity signs in uninfected mice: did not induce any toxicity signs
[2]
  conformity to Lipinski's and Veber's rules for drug-likeness: conform
[3]
  IC50: 235 µM

## CCOc1ccc(/C=C2\CCc3ccccc3C2=O)cc1 [NSC252172, (2E)-2-[(4-ethoxyphenyl)methylidene]-3,4-dihydronaphthalen-1-one]
C. parvum; [4]
  load of C. parvum oocysts shed in feces: significant reduction
C. parvum
  reduction in oocysts load compared to untreated mice: about threefold reduction in oocysts load
  oocysts load compared to untreated mice: about ninefold lower oocysts load
  potency, fold higher than paromomycin (1,000 mg/kg): about 2.5 fold
[1]
  toxicity signs in uninfected mice: did not induce any toxicity signs
[2]
  conformity to Lipinski's and Veber's rules for drug-likeness: conform
[3]; [5]
  IC50: 123 µM

## Cc1cc2c(c(C#N)c1C)NC=NC2C (stereo not shown) [NSC303244, 4,6,7-trimethyl-1,4-dihydroquinazoline-8-carbonitrile]
C. parvum; [4]
  load of C. parvum oocysts shed in feces: significant reduction
[1]
  toxicity signs in uninfected mice: did not induce any toxicity signs
[2]
  conformity to Lipinski's and Veber's rules for drug-likeness: conform
[3]; [5]
  IC50: 243 µM

## N#C/C(=C\c1cc(O)c(O)c(O)c1)C(N)=O [NSC638080, (E)-2-cyano-3-(3,4,5-trihydroxyphenyl)prop-2-enamide]
C. parvum
  relative potency among the treatments (oocysts load): least efficacy
C. parvum; [4]
  load of C. parvum oocysts shed in feces: significant reduction
[1]
  toxicity signs in uninfected mice: did not induce any toxicity signs
[2]
  conformity to Lipinski's and Veber's rules for drug-likeness: conform
[3]; [5]
  IC50: 97.1 µM
